According to US10279022B2, “Peptides and combination of peptides for use in immunotherapy against various cancers” (immatics biotechnologies GmbH, priority 2015, dated 2019):

Tested on: HLA-A*24
Experiment: MHC binding assay by UV-ligand exchange and beta2m ELISA (HLA-A*24)
Parameters: species or system human
Details: peptide exchange yield, binding to HLA-A*24; UV-ligand exchange, beta2m ELISA
Excerpt: Candidate peptides for T cell based therapies according to the present invention were further tested for their MHC binding capacity (affinity). The individual peptide-MHC complexes were produced by UV-ligand exchange, where a UV-sensitive peptide is cleaved upon UV-irradiation, and exchanged with the peptide of interest as analyzed. Only peptide candidates that can effectively bind and stabilize the peptide-receptive MHC molecules prevent dissociation of the MHC complexes. To determine the yield of the exchange reaction, an ELISA was performed based on the detection of the light chain (β2m) of stabilized MHC complexes. The assay was performed as generally described in Rodenko et al. (Rodenko et al., 2006).
96 well MAXISorp plates (NUNC) were coated over night with 2 ug/ml streptavidin in PBS at room temperature, washed 4× and blocked for 1 h at 37° C. in 2% BSA containing blocking buffer. Refolded HLA-A*02:01/MLA-001 monomers served as standards, covering the range of 15-500 ng/ml. Peptide-MHC monomers of the UV-exchange reaction were diluted 100 fold in blocking buffer. Samples were incubated for 1 h at 37° C., washed four times, incubated with 2 ug/ml HRP conjugated anti-β2m for 1 h at 37° C., washed again and detected with TMB solution that is stopped with […]. Absorption was measured at 450 nm. Candidate peptides that show a high exchange yield (preferably higher than 50%, most preferred higher than 75%) are generally preferred for a generation and production of antibodies or fragments thereof, and/or T cell receptors or fragments thereof, as they show sufficient avidity to the MHC molecules and prevent dissociation of the MHC complexes.

## 160 (VYTLDIPVL; listed as Homo sapiens) [compound 160]
  Peptide exchange: ++++ (> = 75% = ++++)

## 161 (IYLVSIPEL; listed as Homo sapiens) [compound 161]
  Peptide exchange: ++++ (> = 75% = ++++)

## 166 (YYVESGKLF; listed as Homo sapiens) [compound 166]
  Peptide exchange: ++++ (> = 75% = ++++)

## 168 (KYQDILETI; listed as Homo sapiens) [compound 168]
  Peptide exchange: ++++ (> = 75% = ++++)

## 172 (TYTTVPRVAF; listed as Homo sapiens) [compound 172]
  Peptide exchange: ++++ (> = 75% = ++++)

## 173 (IYSWILDHF; listed as Homo sapiens) [compound 173]
  Peptide exchange: ++++ (> = 75% = ++++)

## 175 (YYEVHKELF; listed as Homo sapiens) [compound 175]
  Peptide exchange: ++++ (> = 75% = ++++)

## 177 (VYPWLGALL; listed as Homo sapiens) [compound 177]
  Peptide exchange: ++++ (> = 75% = ++++)

## 179 (MYDSYWRQF; listed as Homo sapiens) [compound 179]
  Peptide exchange: ++++ (> = 75% = ++++)

## 181 (LYLDIINLF; listed as Homo sapiens) [compound 181]
  Peptide exchange: ++++ (> = 75% = ++++)

## 184 (VFQNFPLLF; listed as Homo sapiens) [compound 184]
  Peptide exchange: ++++ (> = 75% = ++++)

## 186 (IFPQFLYQF; listed as Homo sapiens) [compound 186]
  Peptide exchange: ++++ (> = 75% = ++++)

## 187 (TYLRDQHFL; listed as Homo sapiens) [compound 187]
  Peptide exchange: ++++ (> = 75% = ++++)

## 192 (SYALLTYMI; listed as Homo sapiens) [compound 192]
  Peptide exchange: ++++ (> = 75% = ++++)

## 193 (RFHPTPLLL; listed as Homo sapiens) [compound 193]
  Peptide exchange: ++++ (> = 75% = ++++)

## 195 (TYSVSFPMF; listed as Homo sapiens) [compound 195]
  Peptide exchange: ++++ (> = 75% = ++++)

## 202 (VYWDSAGAAHF; listed as Homo sapiens) [compound 202]
  Peptide exchange: ++++ (> = 75% = ++++)

## 210 (IYTMIYRNL; listed as Homo sapiens) [compound 210]
  Peptide exchange: ++++ (> = 75% = ++++)

## 211 (YYLEVGKTLI; listed as Homo sapiens) [compound 211]
  Peptide exchange: ++++ (> = 75% = ++++)

## 216 (QYSSVFKSL; listed as Homo sapiens) [compound 216]
  Peptide exchange: ++++ (> = 75% = ++++)

## 217 (FFPPTRQMGLLF; listed as Homo sapiens) [compound 217]
  Peptide exchange: ++++ (> = 75% = ++++)

## 227 (IFLDYEAGTLSF; listed as Homo sapiens) [compound 227]
  Peptide exchange: ++++ (> = 75% = ++++)

## 228 (KYTSWYVAL; listed as Homo sapiens) [compound 228]
  Peptide exchange: ++++ (> = 75% = ++++)

## 267 (KYMVYPQTF; listed as Homo sapiens) [compound 267]
  Peptide exchange: ++++ (> = 75% = ++++)

## 271 (LYHDIFSRL; listed as Homo sapiens) [compound 271]
  Peptide exchange: ++++ (> = 75% = ++++)

## 272 (QYLQDAYSF; listed as Homo sapiens) [compound 272]
  Peptide exchange: ++++ (> = 75% = ++++)

## 274 (AYLHSHALI; listed as Homo sapiens) [compound 274]
  Peptide exchange: ++++ (> = 75% = ++++)

## 276 (VYGFQWRHF; listed as Homo sapiens) [compound 276]
  Peptide exchange: ++++ (> = 75% = ++++)

## 277 (VYQGHTALL; listed as Homo sapiens) [compound 277]
  Peptide exchange: ++++ (> = 75% = ++++)

## 278 (RYISDQLFTNF; listed as Homo sapiens) [compound 278]
  Peptide exchange: ++++ (> = 75% = ++++)

## 280 (RYPDNLKHLYL; listed as Homo sapiens) [compound 280]
  Peptide exchange: ++++ (> = 75% = ++++)

## 282 (KFVDSTFYL; listed as Homo sapiens) [compound 282]
  Peptide exchange: ++++ (> = 75% = ++++)
